Results reported in BindingDB's records for doi:10.1111/cbdd.12752 (Jagiellonian University Medical College, 2016).

target: Histamine H4 receptor (Homo sapiens, UniProt Q9H3N8); assay: In vitro [3H]histamine Binding Assay; details: pH 7.4; 4 °C
Experimental: Prior to the experiments, cell membranes were sedimented by a 10 min centrifugation at 4 °C and 16 0009x g and resuspended in binding buffer (12.5 mM MgCl2, 1 mM EDTA and 75 mM Tris/HCl, pH 7.4). Competition binding experimentswere carried out by incubating membranes, 35 ug/well (prepared from Sf9 cells transiently expressing human H4R, co-expressed with G proteins Galphai2 and Gbeta1gamma2 subunits) in a final volume of 0.2 mL containing binding buffer and [3H]histamine 2x HCl (10 nM, 15.3 Ci/mmol, PerkinElmer, Waltham, MA, USA) in a 96 well microtitre plate. Assays were run in duplicates or triplicates with four or seven appropriate concentrations between 100 nM or 0.1 nM and 100 uM of the test compounds. Amount of experiments was at least 2. Only exceptions were for substance 2, 3, and 4 where only one experiment in duplicates was performed.Incubations were performed for 60 min at 25 °C and shaking at 250 rpm. Non-specific binding was determined.

Structure (SMILES)	Ki
CN1CCN(CCCNC(=O)Nc2cccc(Cl)c2)CC1 [1-(3-Chlorophenyl)-3-(3-(4-methylpiperazin-1-yl)propyl)urea (7)]	> 100 µM
CN1CCN(CCCNC(=O)c2sc3cc(Cl)ccc3c2Cl)CC1 [3,6-Dichloro-N-(3-(4-methylpiperazin-1-yl)propyl)benzo[b]thiophene-2-carboxamide (6)]	> 100 µM
CN1CCN(c2nc(N)nc(CN3C(=O)NC(C)(C)C3=O)n2)CC1 [3-((4-Amino-6-(4-methylpiperazin-1-yl)-1,3,5-triazin-2-yl)methyl)-5,5-dimethylimidazolidine-2,4-dione (9)]	14.6 µM
CC(C)Cc1nc(N)nc(N2CCN(C)CC2)n1 [4-(4-Methylpiperazin-1-yl)-6-(2-methylpropyl)-1,3,5-triazin-2-amine (10)]	8.26 µM
CN1CCN(c2nc(N)nc(Cc3cccc4ccccc34)n2)CC1 [4-(4-Methylpiperazin-1-yl)-6-(naphthalen-1-ylmethyl)-1,3,5-triazin-2-amine (12)]	5.6 µM
CN1CCN(c2nc(N)nc(-c3ccncc3)n2)CC1 [4-(4-Methylpiperazin-1-yl)-6-(pyridin-4-yl)-1,3,5-triazin-2-amine (15)]	3.19 µM
CN1CCN(c2nc(N)nc(COc3ccc(Cl)cc3)n2)CC1 [4-((4-Chlorophenoxy)methyl)-6-(4-methylpiperazin-1-yl)-1,3,5-triazin-2-amine (14)]	10.6 µM

The next lines start with the values.

Ki	Structure (SMILES)
7.5 µM	CN1CCN(c2nc(N)nc(Cc3ccccc3)n2)CC1 [4-Benzyl-6-(4-methylpiperazin-1-yl)-1,3,5-triazin-2-amine (13)]
> 100 µM	CN1CCN(CCCNC(=O)c2cc3cc(Cl)ccc3[nH]2)CC1 [5-Chloro-N-(3-(4-methylpiperazin-1-yl)propyl)-1H-indole-2-carboxamide (5)]
> 100 µM	CN1CCN(C(=O)c2ccccc2Cl)CC1 [(2-Chlorophenyl)(4-methylpiperazin-1-yl)methanone (1)]
3.88 µM	CN1CCN(C(=O)c2cccc(Cl)c2)CC1 [(3-Chlorophenyl)(4-methylpiperazin-1-yl)methanone (2)]
7.55 µM	CN1CCN(C(=O)c2ccc(Cl)cc2)CC1 [(4-Chlorophenyl)(4-methylpiperazin-1-yl)methanone (3)]
3.52 µM	CN1CCN(C(=O)Nc2ccc(Cl)cc2)CC1 [N-(4-Chlorophenyl)-4-methylpiperazine-1-carboxamide (4)]
